{"source": "patent US20210259960A1", "about": "“FORMULATION CONTAINING EMRICASAN” (The Doshisha, priority 2018, published 2021)", "key": {"[1]": {"assay": "Stability of emricasan in solution using Tween 80, HPLC (Example 4)", "type": "physicochemical", "conditions": "0.5% emricasan, 0.5% Tween 80", "method": "(§1) Stability of when Tween 80 was used as a surfactant to dissolve emricasan to a final concentration of 0.5% was tested. 500 mg of emricasan was accurately measured with an electronic balance (AUW220D, SHIMADZU) and transferred to a glass test tube. 2 ml of 99% ethanol was added thereto to dissolve emricasan. The solution thereof was sufficiently stirred with a vortex mixer in order to completely dissolve emricasan. The solution thereof was then added with polysorbate 80 (Tween 80, NIKKOL), which is a surfactant, so that the final concentration was 0.5%, followed by sufficient stirring. Ethanol was then distilled off by a nitrogen gas stream. In order to adjust osmotic pressure, concentrated glycerin was added to this solution so that the final concentration was 1%. Phosphate buffered saline (PBS) was adjusted to pH 8, and added so that the total amount was 100 ml. After the solution was sufficiently stirred, 20 ml was collected and filtered with a 0.22 μmGV filter (Merck Millipore). 5 ml of the first filtrate was discarded, and 15 ml of the subsequent filtrate was collected. 5 ml of this filtrate was placed in each glass test tube for 4° C., 25° C., and 37° C., shaded by a parafilm and an aluminum foil, and preserved under each temperature condition. The stability of this sample was studied by a high performance liquid chromatography (HPLC, Shimadzu Corporation). […]"}, "[2]": {"assay": "Lyophilization test of emricasan ophthalmic solution, re-solubility by HPLC (Example 6)", "type": "physicochemical", "conditions": "water added", "method": "7 mg of emricasan was accurately measured with an electronic balance (AUW220D, SHIMADZU) and transferred to a glass test tube. 140 μl of 99% ethanol was added thereto to dissolve emricasan. The solution thereof was sufficiently stirred with a vortex mixer in order to completely dissolve emricasan. The solution thereof was then added with polysorbate 80 (Tween 80, NIKKOL), which is a surfactant, so that the final concentration was 0.5%, followed by sufficient stirring. Ethanol was then distilled off by a nitrogen gas stream. D-mannitol (Wako Pure Chemical Industries, Ltd.) was dissolved into phosphate buffered saline (PBS) so that the final concentration was 4.5%, and the solution thereof was adjusted to pH 4.5 and added to the above solution so that the total amount was 7 ml. This solution was sufficiently stirred, and preserved in a −83° C. freezer for one day. After freezing, water was completely removed by a lyophilization machine (FDU-1200, TOKYO RIKAKIKAI CO, LTD) for 12 hours.\nWater was then added to study the re-solubility. Further, after this sample was filtered with a 0.22 μmGV filter (Merck Millipore), the re-solubility of emricasan was measured by a high performance liquid chromatography (HPLC, Shimadzu Corporation). […]"}, "[3]": {"assay": "Solubility of emricasan with 0.5% of various surfactants at low pH, visually observed (Example 2)", "type": "physicochemical", "conditions": "target 10 mmol/L; surfactant 0.5% (HCO-100, HCO-60, HCO-40, HCO-20, CO-35, MYS-40, poloxamer 407)", "method": "In this example, a target dissolution concentration of emricasan was set to be 10 mmol/L in the same manner as Example 1. 28 mg of emricasan was accurately measured with an electronic balance (AUW220D, SHIMADZU) and transferred to a glass test tube. 100 μl of 99% ethanol was added thereto to dissolve emricasan. The solution thereof was sufficiently stirred with a vortex mixer in order to completely dissolve emricasan. The solution thereof was then added with polyoxyethylene hydrogenated castor oil 100 (HCO-100, NIKKOL), polyoxyethylene hydrogenated castor oil (HCO-60, NIKKOL), polyoxyethylene hydrogenated castor oil 40 (HCO-40, NIKKOL), polyoxyethylene hydrogenated castor oil 20 (HCO-20, NIKKOL), polyoxyethylene castor oil (CO-35:, NIKKOL), polyethylene glycol monostearate 40 (MYS-40, NIKKOL), and polyoxyethylene polyoxypropylene glycol 407 (poloxamer 407, NIKKOL), which are nonionic surfactants comprising a polyoxyethylene group, so that the final concentration was 0.5%, followed by sufficient stirring. Phosphate buffered saline (PBS) was added to this solution so that the total amount was 5 ml, and the solution was sufficiently stirred and solubility was visually observed."}, "[4]": {"assay": "Stability of emricasan in an acidic region using Tween 80, HPLC (Example 5)", "type": "physicochemical", "method": "Stability of when Tween 80 was used as a surfactant to dissolve emricasan to a final concentration of 0.1% was tested.\n45 mg of emricasan was accurately measured with an electronic balance (AUW220D, SHIMADZU) and transferred to a glass test tube. 0.9 ml of 99% ethanol was added thereto to dissolve emricasan. The solution thereof was sufficiently stirred with a vortex mixer in order to completely dissolve emricasan. The solution thereof was then added with polysorbate 80 (Tween 80, NIKKOL), which is a surfactant, so that the final concentration was 0.5%, followed by sufficient stirring. Ethanol was then distilled off by a nitrogen gas stream. In order to adjust osmotic pressure, concentrated glycerin was added to this solution so that the final concentration was 1%. Phosphate buffered saline (PBS) was adjusted to pH 5.5, and added so that the total amount was 45 ml. After the solution was sufficiently stirred, 20 ml was collected and filtered with a 0.22 μmGV filter (Merck Millipore). 5 ml of the first filtrate was discarded, and 15 ml of the subsequent filtrate was collected. 5 ml of this filtrate was placed in each glass test tube for 4° C., 25° C., and 37° C., shaded by a parafilm and an aluminum foil, and preserved under each temperature condition. The stability of this sample was studied by a high performance liquid chromatography (HPLC, Shimadzu Corporation). HPLC conditions were as follows: acetonitrile containing 0.05% trifluoroacetic acid and water were used at the ratio of 60:40 as a mobile phase, the temperature of VR-ODS column (4.6×150 mm, Shimadzu Corporation) was set to be 40° C., the flow rate was set to be 1.0 ml/min, the detection wavelength was set to be 254 nm, the injection volume was set to be 10 μl, and the detection time was set to be 10 minutes. In this case, the stability was studied over time by assuming the results of HPLC measurement immediately after preparation to be 100% and comparing said results with the results after 2 weeks and 4 weeks. Further, the condition of pH 4.5 was prepared and studied in the same method as described above."}, "[5]": {"assay": "Solubility of emricasan with 2% surfactant at various pH, visually observed (Example 1)", "type": "physicochemical", "method": "28 mg, which is the amount for the target concentration, of emricasan powder (Chemscene) was accurately measured with an electronic balance (AUW220D, SHIMADZU) and transferred to a glass test tube. 100 μl of 99% ethanol was added thereto to dissolve the emricasan powder. The solution thereof was sufficiently stirred with a vortex mixer in order to completely dissolve the emricasan powder. The solution thereof was then added with each of polysorbate 80 (Tween 80, NIKKOL), polyoxyethylene hydrogenated castor oil (HCO-60, NIKKOL), and polyethylene glycol monostearate (MYS-40, NIKKOL), which are nonionic surfactants comprising a polyoxyethylene group, so that the final concentration was 2%, followed by sufficient stirring. Phosphate buffered saline (PBS) was added to this solution so that the total amount was 5 ml, and the solution was sufficiently stirred and solubility was visually observed."}, "[6]": {"assay": "Stability of emricasan in solution using HCO-60, HPLC (Example 3)", "type": "physicochemical", "conditions": "0.5% emricasan, 0.5% HCO-60", "method": "as §1, with “when HCO-60” for “when Tween 80”, “with polyoxyethylene hydrogenated castor oil 60 (HCO-60,” for “with polysorbate 80 (Tween 80,”, “collected. […] In this case, the stability was evaluated over time by assuming the results” for “collected. 5 ml”, “of HPLC measurement immediately after preparation to be 100%” for “of this filtrate was placed in each glass test tube for 4° C., 25° C.,”, “and comparing said results with the results after 2 weeks” for “and 37° C., shaded by a parafilm”, “and 4 weeks.” for “and an aluminum foil, and preserved under each temperature condition. The stability of this sample was studied by a high performance liquid chromatography (HPLC, Shimadzu Corporation).”"}, "[7]": {"system": "immortalized cells in Fuchs' endothelial corneal dystrophy (iFECD)", "conditions": "in vitro; cited from earlier work"}}, "data": [{"smiles": "C[C@H](NC(=O)C(=O)Nc1ccccc1C(C)(C)C)C(=O)N[C@@H](CC(=O)O)C(=O)COc1c(F)c(F)cc(F)c1F", "note": "[emricasan]", "values": [{"measurement": "stability in solution", "setting": "[1]; 25° C. and 37° C.", "value": "degradation of emricasan was observed"}, {"measurement": "emricasan which was not degraded (residual vs immediately after preparation)", "setting": "[1]; pH 6 to 8, 4° C., 4 weeks", "value": "no less than 90%"}, {"measurement": "amount of emricasan dissolved relative to before lyophilization", "setting": "[2]; lyophilized (0.5% Tween 80, 4.5% D-mannitol, pH 4.5), after 0.22 μm filtration", "value": "about 88%"}, {"measurement": "re-solubility after addition of water (appearance)", "setting": "[2]; lyophilized sample", "value": "immediately dissolved but was pale white"}, {"measurement": "final pH at which dissolution was observed", "setting": "[3]", "value": "≥ 6.5"}, {"measurement": "emricasan which was not degraded", "setting": "[4]; 0.1% emricasan, 0.5% Tween 80, pH 4.5, 25° C., 2 weeks", "value": "no less than 90%"}, {"measurement": "emricasan which was not degraded", "setting": "[4]; 0.1% emricasan, 0.5% Tween 80, pH 4.5 and 5.5, 4° C., 4 weeks", "value": "no less than 90%"}, {"measurement": "stability in solution", "setting": "[4]; 0.1% emricasan, 0.5% Tween 80, pH 4.5 and pH 5.5, 37° C.", "value": "degradation of emricasan was observed"}, {"measurement": "emricasan which was not degraded", "setting": "[4]; 0.1% emricasan, 0.5% Tween 80, pH 5.5, 25° C., 2 weeks", "value": "less than 90%"}, {"measurement": "emricasan which was not degraded", "setting": "[4]; 0.1% emricasan, 0.5% Tween 80, pH 5.5, 25° C., 4 weeks", "value": "no less than 50%"}, {"measurement": "solubility at final concentration of 0.1%", "setting": "[4]; 0.5% Tween 80, pH 4.5 and pH 5.5", "value": "dissolved"}, {"measurement": "amount of emricasan that dissolves", "setting": "[4]; pH on the acidic side", "value": "at least 0.1 % by weight"}, {"measurement": "solubility (visually observed)", "setting": "[5]; HCO-60 2%, pH 5.0, target 10 mmol/L", "value": "a suspended state was maintained"}, {"measurement": "solubility (visually observed)", "setting": "[5]; Tween 80, HCO-60 or MYS-40 2%, pH 7, target 10 mmol/L", "value": "dissolution of all of the emricasan was observed"}, {"measurement": "solubility in saline, phosphate buffer, purified water", "setting": "[5]; no surfactant, at a concentration for use in an eye drop", "value": "poorly soluble"}, {"measurement": "solubility (visually observed)", "setting": "[5]; no surfactant, pH 7.0 to 8.0, target 10 mmol/L", "value": "dissolution was not observed"}, {"measurement": "minimum pH value of a solvent in which dissolution was visually observed", "setting": "[5]; target 10 mmol/L, nonionic polyoxyethylene surfactant 2%", "value": 6.0}, {"measurement": "solubility (visually observed)", "setting": "[5]; with surfactant 2%, pH 5.0, target 10 mmol/L", "value": "slightly dissolved"}, {"measurement": "stability in solution", "setting": "[6]; 25° C. and 37° C.", "value": "degradation of emricasan was observed"}, {"measurement": "emricasan which was not degraded (residual vs immediately after preparation)", "setting": "[6]; pH 6 to 8, 4° C., 4 weeks", "value": "no less than 90%"}, {"measurement": "concentration that exhibited pharmacological activity", "setting": "[7]", "value": 10, "unit": "μmol/L"}]}]}
